Results published in patent US8168177B2, “Method of regulating mammalian target-of-rapamycin activity by interaction between phospholipase D and Rheb” (Postech Academy-Industry Foundation, priority 2006, dated 2012).

What was measured:
[1] = tested on: interaction between mTOR and Rheb / mTOR signaling; experiment: IP analysis of HA-RhebQ64L transfected cells treated with 1-butanol, t-butanol, PA, rapamycin; assay type: cell-based
Protocol: (§1) After harvesting COS7 cells, total extracts were prepared by brief sonication in ice-cold lysis buffer (40 mM HEPES pH7.5, 120 mM NaCl, 1 mM EDTA, 10 mM pyrophosphate, 10 mM glycerophosphate, 50 mM NaF, 1.5 mM Na3VO4, 0.5% CHAPS, 1 mM PMSF, protease inhibitor cocktails). Clarified extracts were mixed with 2 μg of the respective antibodies. Then protein A-Sepharose beads were added to isolate the antibody complex. After four washings with lysis buffer, the final immunoprecipitates were washed once with wash buffer (50 mM HEPES pH7.5, 150 mM NaCl), and then subjected to SDS-PAGE using Hyperfilm (Amersham Pharmacia Biotech), nitrocellulose membranes (Watmann), Power supply (Amersham Pharmacia Biotech), Electrophoretic Transfer unit (Hoefer Scientific Instruments), and ECL™ (Amersham Pharmacia Biotech).
This example examined the speculation that PA could increase Rheb/mTOR binding and activate mTOR through PA-dependent conformational change of mTOR.

[2] = tested on: S6K1 phosphorylation; experiment: Leucine-induced S6K1 phosphorylation (Western blot); assay type: cell-based
Protocol: COS7 cells (ATCC, CRL-1651) were maintained in a 5% CO2 humidified atmosphere at 37° C. and fed DMEM supplemented with 10% bovine calf serum (HyClone). HEK293 cells (ATCC: CRL-1573) were fed DMEM supplemented with 10% fetal bovine serum (HyClone). Cells grown on tissue culture dishes were transiently transfected using LipofectAMINE, as described in “Park, J. B. et al. Cardiac phospholipase D2 localizes to sarcolemmal membranes and is inhibited by alpha-actinin in an ADP-ribosylation factor-reversible manner. J. Biol. Chem. 275, 21295-21301 (2000)” and “Lee, S. et al. Actin directly interacts with phospholipase D, inhibiting its activity. J. Biol. Chem. 276, 28252-28260 (2001)”, which are hereby incorporated by reference. Cells were allowed to express the recombinant proteins for 24 hr after transfection and then deprived of serum for additional 24 hr. The cells were then subjected to leucine deprivation, co-immunoprecipitation, or GST pull-down analysis. Leucine deprivation was performed as previously described 10 with minor modification. Briefly, cells were deprived of serum first for 24 hrs and then subjected to leucine deprivation in leucine-free RPMI 1640 medium. […]

[3] = tested on: mTOR pathway; details: cited from earlier work
[4] = biological target: T1, mTOR complex (Homo sapiens, UniProt P42345); experiment: In vitro binding of purified GST-Rheb to mTOR/raptor/PLD2 immunoprecipitate; details: PA 10 μM, GST-Rheb 40 nM, in the presence of GTPγS 100 μM (FIG. 13)
T1 construct: expressed in transfected cells; host or cells: The mTOR/raptor/PLD2 complex came from transfected mammalian cells; GST-Rheb was expressed in E. coli
Protocol: After incubation at 4° C. for 2 hr, the beads were washed and then subjected to SDS-PAGE. E. coli and COS7 cells were lysed with the lysis buffer used for the co-immunoprecipitation. Hexa-histidine (His6)-tagged PLD2 was purified from detergent extracts of baculovirus-infected Sf9 cells (Invitrogen) by chelating Sepharose affinity column chromatography, as previously described in Lee, S. et al. Actin directly interacts with phospholipase D, inhibiting its activity. J. Biol. Chem. 276, 28252-28260 (2001), which is hereby incorporated by reference. […] In vitro binding analysis was done in ice-cold lysis buffer (as used for the co-immunoprecipitation but including 10% glycerol).
HA-mTOR, myc-raptor, and PLD2 were transfected and resulting lysates were immunoprecipitated with anti-HA antibody.

[5] = biological target: T2, PLD2 (Homo sapiens, UniProt O14939); experiment: In vivo PLD assay (PBt formation) in PLD2wt transfected cells; assay type: cell-based; details: leucine-free vs leucine-added media, 0.4% 1-butanol (FIG. 16)
T2 construct: expressed in transfected cells
Protocol: In vivo PLD activity was assayed by measuring the formation of phosphatidyl-butanol as described in “Lee, S. et al. Actin directly interacts with phospholipase D, inhibiting its activity. J. Biol. Chem. 276, 28252-28260 (2001)” and “Ha, S. H., Kim, D. H., Kim, I. S., Kim, J. H., Lee, M. N., Lee, H. J., Kim, J. H., Jang, S. K., Suh, P. G., Ryu, S. H. PLD2 forms a functional complex with mTOR/raptor to transduce mitogenic signals. Cell. Signal. 18 (2006) 2283-2291”, which are hereby incorporated by reference.
In brief, cells were loaded with [^3H]myristic acid (2 μCi/ml) for 8 hr and then washed twice with DMEM. Labeled cells were incubated with 0.4% butanol for 10 min to measure basal PLD activity. Total lipids were extracted with 1.2 ml of methanol:1M NaCl:chloroform (1:1:1 by volume) and then separated by thin-layer chromatography on silica gel plates. The amount of [^3H]phosphatidyl-butanol formed was expressed as a percentage of total [^3H]lipid to account for cell labeling efficiency differences.
Until now, the function of PLD2 in nutrient signaling has not been proposed. To this end, the importance of PLD2 in nutrient signaling was tested. […] Based on the result, PLD2 activity in response to nutrient levels was checked. PLD2^wt was transfected and allowed to express for 24 hr.

[6] = tested on: interaction between PLD2 and mTOR; experiment: Co-IP of endogenous PLD2 with mTOR (anti-mTOR antibody); assay type: cell-based; details: rapamycin: mTOR inhibition; leucine: leucine-deprived COS7 and HEK293 cells (FIG. 17)
Protocol: as §1

**Q.** Which “interaction between mTOR and Rheb” value ([1]; 1-butanol 0.4%, HA-RhebQ64L cells serum deprived 24 hr (FIG. 12)) does the source give for `CCCCO` [1-butanol] here?
**A.** The value was “attenuated”.

**Q.** And the “stimulatory effect of leucine on S6K1” value ([2]; 1-butanol treatment)?
**A.** Its value is “significantly reduced”.

**Q.** Which “Rheb activation of mTOR signaling, rescue from 1-butanol-treated cells” value ([1]; C-6 PA 100 uM (FIG. 12)) does the source give for `CCCCCC(=O)OC[C@H](COP(=O)(O)O)OC(=O)CCCCC` [PA, C-6 phosphatidic acid] here?
**A.** Its value is “essentially required”.

**Q.** What about the “rescue of mTOR activity by PA” value ([3]; PLD1 expression lowered) of the same compound?
**A.** The value was “could rescue”.

**Q.** And the “activation of mTOR pathway by PA” value ([3]; PLD2 expression lowered)?
**A.** The value was “could no longer activate”.

**Q.** What about the “GST-Rheb binding to mTOR complex” value [4] of the same compound?
**A.** Its value is “increased”.

**Q.** For “PLD2 siRNA: 21-nucleotide siRNA duplex (SEQ ID NO: 9/10) corresponding to human PLD2 coding nucleotides 703-723 (chain 1 AAGAGGUGGCUGGUGGUGAAG; chain 2 CUUCACCACCAGCCACCUCUU; listed as RNA, chemistry not given here)”, which “effect of leucine on S6K1 phosphorylation” value ([2]; leucine deprivation 45 min, then leucine 15 min (0-100 μM FIG. 20; 100 μM FIG. 21)) is on record?
**A.** The value was “completely downregulated”.

**Q.** What does the source list for `CC(C)C[C@H](N)C(=O)O` [leucine]?
**A.** PLD2 activity (PBt formation) [5]: reversibly regulated; interaction between PLD2 and mTOR [6]: increased
